Key:
Assay type in all cases: biochemical
miR-17 [1] = assay: Ribonuclease activity assay at different concentrations of KCl; conditions: miRNA 1 µM, DC 20 µM, 37 °C, 48 h; for Cleavage: 20 mM Tris-HCl pH 7.8, 8 mM MgCl2, 1 mM DTT, 0.02 mg/mL BSA, mean ± s.e.
Procedure: Potassium ions play an important role in the regulation of cell homeostasis by maintaining the membrane potential, cell volume and pH, and may also have an influence on the performance of artificial ribonucleases. […] In order to understand the effect of K^+ ions on the efficiency of miRNA cleavage by DCs, miR-17 was incubated with the matching DC in the buffer containing 50 mM Tris-HCl, pH 7.0, 1 mM DTT, 0.02 mg/mL BSA and different K^+ concentration varied from 0 to 400 mM. […] In the absence of potassium and at a concentration of more than 200 mM, the efficiency of miRNA cleavage was 2-fold reduced.
Reaction with different concentration of KCl was performed in reaction mixtures (8 µL) containing 320 cpm (Cherenkov’s counting) of [^32P]-miR-17, 1 μM unlabeled miRNA, 20 µM of miRNA-17-DC in buffers contained 20 mM Tris-HCl, pH 7.8, 8 mM MgCl2, 1 mM DTT, 0.02 mg/mL BSA, and KCl at concentration 0, 40, 100, 200 or 400 mM at 37 °C for 48 h. RNA cleavage products were collected and analyzed as described above.

miR-17 [2] = assay: Ribonuclease activity assay, cleavage of miR-17; conditions: miRNA 1 µM, DC 20 µM, 37 °C
Procedure: (§1) The ribonuclease activity of DCs was studied under two different buffer conditions: buffer (1) contained 50 mM Tris-HCl, pH 7.0, 200 mM KCl, 1 mM EDTA, which imitates intracellular conditions (e.g., pH and potassium ions concentration) and was used in a number of studies previously; and buffer (2) contained 20 mM Tris-HCl, pH 7.8, 40 mM KCl, 8 mM MgCl2, 1 mM DTT, 0.02 mg/mL BSA, which is recommended for in vitro reactions with RNase H (Figure 3 and Figure 4).
(§2) Figure 3 Kinetics of cleavage of 5′-[^32P]-labeled miR-17, miR-18a, miR-155, miR-21 and miR-21_1 by corresponding DCs in the buffer (1), containing 50 mM Tris-HCl, pH 7.0, 200 mM KCl and 1 mM EDTA. (a–e) Radioautographs of 18% denaturing PAAG showing the cleavage products of miR-17, miR-18a, miR-155, miR-21 and miR-21_1, respectively. miRNA (1 µM) and corresponding DC (20 µM) were incubated at 37 °C for 72 h. Lanes Im and T1—imidazole ladder and partial RNA digestion with RNase T1, respectively; control–miRNA was incubated in the absence of the conjugate. The incubation time (in hours) is show at the top. SS gap–single-stranded region of miRNA formed upon hybridization with DC; (f) Kinetics of miRNAs cleavage by DCs depending on the incubation time. Data are presented as mean ± s.e.
(§3) Figure 4 Kinetics of cleavage of 5′-[^32P]-labeled miR-17, miR-18a, miR-155, miR-21, and miR-21_1 by corresponding DCs in the buffer (2), containing 20 mM Tris-HCl, pH 7.8, 40 mM KCl, 8 mM MgCl2, 1 mM DTT, 0.02 mg/mL BSA. (a–e) Radioautographs of 18% denaturing PAAG showing the cleavage products of miR-17, miR-18a, miR-155, miR-21 and miR-21_1, respectively. miRNA (1 µM) and corresponding DC (20 µM) were incubated at 37 °C for 72 h. Lanes Im and T1–imidazole ladder and partial RNA digestion with RNase T1, respectively; control–miRNA was incubated in the absence of the conjugate. The incubation time (in hours) is shown at the top. SS gap–single-stranded region of miRNA formed upon hybridization with DC; (f) Kinetics of miRNAs cleavage by DCs. Data are presented as mean ± s.e.
(§4) The reaction mixture (10 µL) contained 800 cpm (Cherenkov’s counting) of [^32P]-miRNA, 1 μM unlabeled miRNA, one of the conjugates at a concentration 10 or 20 μM and one of the buffers: 50 mM Tris-HCl, pH 7.0, 200 mM KCl, 1 mM EDTA–buffer (1) or 20 mM Tris-HCl, pH 7.8, 40 mM KCl, 8 mM MgCl2, 1 mM DTT, 0.02 mg/mL BSA–buffer (2). The mixture was incubated at 37 °C for 0–72 h and quenched by precipitation of RNA with 2% LiClO4 in acetone (90 µL). RNA was collected by centrifugation and dissolved in loading buffer (8 M urea, 0.025% bromophenol blue, 0.025% xylene cyanol). RNA cleavage products were analyzed in 18% PAAG/8M urea using TBE (100 mM Tris-borate, pH 8.3, 2 mM EDTA) as running buffer. To identify cleavage sites, an imidazole and T1-ladders produced by partial RNA cleavage with 2 M imidazole buffer (pH 7.0) and with RNase T1 [68], respectively, were run in parallel. To obtain quantitative data, gels were dried and analyzed using Molecular Imager FX. The total extent of RNA cleavage and the extent of RNA cleavage at each individual site were determined by using Quantity One software v.4.1 (Bio-Rad, Hercules, CA, USA).

miR-21 = assay: Ribonuclease activity assay, cleavage of miR-21; conditions: buffer (2) 20 mM Tris-HCl pH 7.8, 40 mM KCl, 8 mM MgCl2, 1 mM DTT, 0.02 mg/mL BSA, miRNA 1 µM, DC 20 µM, 37 °C
Procedure: as §1, §2, §3, §4

## CTACCTGC–linker 1–[GRLRL]2–linker 2–AAGCACTTTG [miRNA-17-DC, Dual oligonucleotide-peptide conjugate targeted to miR-17: catalytic peptide [LRLRG]2 between two 2-aminoadenine-containing oligodeoxyribonucleotides]
miR-17 [1]; K+ 0 mM
  Cleavage: 13.2±5.0%
miR-17 [1]; K+ 40 mM
  Cleavage: 22.5±4.3%
miR-17 [1]; K+ 100 mM
  Cleavage: 26.4±2.0%
miR-17 [1]; K+ 200 mM
  Cleavage: 13.7±3.5%
miR-17 [1]; K+ 400 mM
  Cleavage: 14.1±3.8%
miR-17 [1]; at 40–100 mM KCl
  most potent degradation of miRNA-target: approximately 25%
miR-17 [2]; buffer (1) 50 mM Tris-HCl pH 7.0, 200 mM KCl, 1 mM EDTA, 2 h
  Total Cleavage: 0%
miR-17 [2]; buffer (1) 50 mM Tris-HCl pH 7.0, 200 mM KCl, 1 mM EDTA, 6 h
  Total Cleavage: 0%
miR-17 [2]; buffer (1) 50 mM Tris-HCl pH 7.0, 200 mM KCl, 1 mM EDTA, 24 h
  Total Cleavage: 1%
miR-17 [2]; buffer (1) 50 mM Tris-HCl pH 7.0, 200 mM KCl, 1 mM EDTA, 48 h
  Total Cleavage: 2%
miR-17 [2]; buffer (1) 50 mM Tris-HCl pH 7.0, 200 mM KCl, 1 mM EDTA, 72 h
  Total Cleavage: 5%
miR-17 [2]; buffer (2) 20 mM Tris-HCl pH 7.8, 40 mM KCl, 8 mM MgCl2, 1 mM DTT, 0.02 mg/mL BSA, 2 h
  Total Cleavage: 1,5%
miR-17 [2]; buffer (2) 20 mM Tris-HCl pH 7.8, 40 mM KCl, 8 mM MgCl2, 1 mM DTT, 0.02 mg/mL BSA, 6 h
  Total Cleavage: 4%
miR-17 [2]; buffer (2) 20 mM Tris-HCl pH 7.8, 40 mM KCl, 8 mM MgCl2, 1 mM DTT, 0.02 mg/mL BSA, 24 h
  Total Cleavage: 18%
miR-17 [2]; buffer (2) 20 mM Tris-HCl pH 7.8, 40 mM KCl, 8 mM MgCl2, 1 mM DTT, 0.02 mg/mL BSA, 48 h
  Total Cleavage: 32%
miR-17 [2]; buffer (2) 20 mM Tris-HCl pH 7.8, 40 mM KCl, 8 mM MgCl2, 1 mM DTT, 0.02 mg/mL BSA, 72 h
  Total Cleavage: 40%
miR-17 [2]
  rise of Kobs in buffer (2) compared to Kobs in buffer (1): 10 fold

## TCAACATC–linker 1–[GRLRL]2–linker 2–GATAAGCTA [miRNA-21-DC, Dual oligonucleotide-peptide conjugate targeted to miR-21: catalytic peptide [LRLRG]2 between two 2-aminoadenine-containing oligodeoxyribonucleotides]
miR-21; 2 h
  Total Cleavage: 4%
miR-21; 6 h
  Total Cleavage: 13%
miR-21; 24 h
  Total Cleavage: 30%
miR-21; 48 h
  Total Cleavage: 30%
miR-21; 72 h
  Total Cleavage: 34%

Reference: article PMC7287882, “Dual miRNases for Triple Incision of miRNA Target: Design Concept and Catalytic Performance” (Molecules, 2020)
